Like-named read-outs stand apart in the source and are kept apart here.
Columns and labels:
[1] = alamarBlue assay on L. amazonensis promastigotes; assay type: cell-based, Leishmania amazonensis; conditions: mouse; CC50 J774.A1 / IC50 L. amazonensis promastigotes; read-out: Selectivity Leishmania SI (CC50/IC50)
Method: (§1) The assay was conducted using the alamarBlue® method as previously described. Briefly, promastigotes of L. amazonensis were grown at 26 °C in Schneider’s medium (US Biological, Life sciences) and supplemented with 10% heat-inactivated fetal bovine serum and 0.04% of sodium bicarbonate. In a 96-well microtiter plates (Corning™, Corning, NY, USA) a serial dilutions of thymol derivatives were first prepared, and later, 10^6 parasites/mL were added into each well. Subsequently, 10% of alamarBlue® was added to the entire plate. The plates were incubated for 72 h at 26 °C.
(§2) Cytotoxicity effect of the tested derivatives was conducted using macrophages of the murine cell line J774.A1 (American Type Culture Collection #TIB-67, city, country), as previously described. The cells were maintained in DMEM at 37 °C in a 5% CO2 humidified incubator. All the plates containing alamarBlue® were analyzed using a plate reader EnSpire Multimode Plate Reader® at excitation and emission wavelengths of 570 and 585 nm, respectively (PerkinElmer, ThermoFisher Scientific, Madrid, Spain). The IC50 (concentrations able to inhibit 50% of parasites), IC90 (concentrations able to inhibit 90% of parasites), and CC50 (concentration able to inhibit 50% of murine macrophages) values were determined for each compound by nonlinear regression using GraphPad software.

[2] = system: L. amazonensis promastigotes; test: alamarBlue assay on L. amazonensis promastigotes; assay type: cell-based, Leishmania amazonensis; conditions: Leishmania amazonensis
Method: as §1, §2

[3] = alamarBlue assay on T. cruzi epimastigotes; assay type: cell-based, Trypanosoma cruzi; conditions: mouse; CC50 J774.A1 / IC50 T. cruzi epimastigotes; read-out: Selectivity Trypanosoma SI (CC50/IC50)
Method: (§3) In a 96-well plate, a serial dilution of the tested derivatives was performed in liver infusion tryptose medium supplemented with 10% heat inactivated fetal bovine serum. Later, 100 µL of 5 × 10^5 cells/mL of epimastigotes was added to each well. Afterwards, 20 µL of alamarBlue® was added to each well, and the plate was maintained at 26 °C for 72 h.
as §2

T. cruzi epimastigotes [4] = test: alamarBlue assay on T. cruzi epimastigotes; assay type: cell-based, Trypanosoma cruzi; conditions: Trypanosoma cruzi
Method: as §3, §2

[5] = Intramacrophagic stage assay, T. cruzi in J774.A1 macrophages; assay type: cell-based, Trypanosoma cruzi; conditions: mouse; CC50 J774.A1 / IC50 intracellular T. cruzi; read-out: Selectivity Trypanosoma SI (CC50/IC50)
Method: (§4) Briefly, in a 96-well plate, macrophages from the J774.A1 cell line were seeded at a final concentration of 2 × 10^5 cells/mL in Dulbecco’s Modified Eagle Medium (DMEM) and maintained at 37 °C in a 5% CO2 atmosphere until fully adhesion. Cells were infected either with L. amazonensis promastigotes (at a ratio of 1:10) or epimastigotes of T. cruzi (at a ratio of 1:7) (macrophage: parasite) and incubated at 37 °C in 5% CO2 for 24 h for Leishmania and 48 h for Trypanosoma. After infection, plates were washed using DMEM to eliminate external parasites. Subsequently, infected macrophages were treated with different concentrations of active compounds for 24 h. Later, macrophages were lysed using 30 μL of medium, Schneider for Leishmania, and in liver infusion tryptose for Trypanosoma, containing 0.05% of sodium dodecyl sulfate (SDS) for 30 s under agitation. Afterwards, 170 μL of the appropriated medium was derivatives added to each well to give a final volume of 200 μL. Subsequently, 10% of alamarBlue® was added into each well and the plate was incubated at 26 °C for 72 h.
as §2

intramacrophage T. cruzi = test: as above; assay type: cell-based, Trypanosoma cruzi; conditions: Trypanosoma cruzi; intramacrophage stage in J774.A1, 24 h treatment; mean ± SD; read-out: T. cruzi Intracellular IC50
Method: as §4, §2

[6] = Cytotoxicity assay on murine macrophages (alamarBlue); assay type: cell-based; conditions: mouse, J774.A1 macrophage cell line, mean ± SD
Method: as §2

L. amazonensis = test: ATP level, CellTiter-Glo, L. amazonensis; assay type: cell-based, Leishmania amazonensis; conditions: IC90, 24 h, luminescence
Method: (§5) The adenosine triphosphate (ATP) level was measured using the CellTiter-Glo Luminescent Cell Viability Assay (Promega, Madrid, Spain). The mitochondria in which most cellular oxidations occur is considered the main source of cell’s ATP; any damage and/or malfunction of this organelle generate the depletion of ATP levels.

T. cruzi = test: ATP level, CellTiter-Glo, T. cruzi; assay type: cell-based, Trypanosoma cruzi; conditions: IC90, 24 h, luminescence
Method: as §5

[7] = system: L. amazonensis promastigotes; test: Hoechst/PI double stain, chromatin condensation, L. amazonensis; assay type: cell-based, Leishmania amazonensis; conditions: IC90, 24 h
Description: (§6) To identify the type of cell death occurring in both kinetoplastids after treatment, Hoechst 33342 and propidium iodide (PI) dyes were used. Even though both dyes are DNA affine, the Hoechst 33342 stain is cell permeable and known to distinguish apoptotic cells from healthy or necrotic cells, whereas the PI is cell impermeable and stain dead cells as late apoptotic or necrosis. After treatment, three types of staining could be observed: blue fluorescence for cells undergoing apoptosis, violet color as the merge of blue and red fluorescence for late apoptotic cells, and red color for dead cells.

T. cruzi epimastigotes [8] = test: Hoechst/PI double stain, chromatin condensation, T. cruzi; assay type: cell-based, Trypanosoma cruzi; conditions: IC90, 24 h
Description: as §6

[9] = system: L. amazonensis promastigotes; test: Monodansylcadaverine staining of autophagic vacuoles, L. amazonensis; assay type: cell-based, Leishmania amazonensis; conditions: 24 h treatment, confocal microscopy
Method: (§7) The present method consists of staining the autophagic vacuoles with the treated cells by ion trapping and specific interactions with the vesicle membrane lipids. The experiment was carried out by following the manufacturer’s recommendations, and as described previously. After 24 h of incubation, cells were stained with MDC reagent at 5 mM and incubated at 26 °C for 30 min in µ-Slide 8 (Ibidi, Gräfelfing, Germany). Later, the cells were washed with PBS and observed with Leica DMI 4000 B.

T. cruzi epimastigotes [10] = test: Monodansylcadaverine staining of autophagic vacuoles, T. cruzi; assay type: cell-based, Trypanosoma cruzi; conditions: 24 h treatment, confocal microscopy
Method: as §7

[11] = 72 h, promastigotes, alamarBlue, 72 h at 26 °C, mean ± SD, triplicates, read-out: L. amazonensis Promastigote IC50
[12] = 72 h, epimastigotes, alamarBlue, 72 h at 26 °C, mean ± SD, triplicates, read-out: T. cruzi Epimastigote IC50

Compound: COc1ccc(C(=O)Oc2cc(C)ccc2C(C)C)cc1 [Derivative 9, thymyl anysoate]
- selectivity ratio [1]: > 10.3
- IC50 [2, 11]: 29.1 ± 3.8 µM
- IC50 ([2]; abstract, stage not stated, read-out: IC50 against L. amazonensis (abstract)): 22.9 µM
- selectivity ratio [3]: > 11.2
- IC50 (T. cruzi epimastigotes [4]; [12]): 26.8 ± 2.2 µM
- selectivity ratio [5]: > 33
- IC50 (intramacrophage T. cruzi): 9.1 ± 0.5 µM
- CC50 [6]: > 300 µM
- decrease of ATP production compared to negative control (L. amazonensis): 84%
- decrease of ATP production compared to negative control (T. cruzi): 65%
- chromatin condensation (Hoechst/PI staining) [7]: increasing the chromatin condensation
- chromatin condensation (Hoechst/PI staining) (T. cruzi epimastigotes [8]): increasing the chromatin condensation
- autophagic vacuoles (MDC staining) [9]: Induction of autophagy
- autophagic vacuoles (MDC staining) (T. cruzi epimastigotes [10]): Induction of autophagy

Compound: Cc1ccc(C(C)C)c(OC(=O)c2ccccn2)c1 [Derivative 10, thymyl picolinate]
- selectivity ratio [1]: 7.4
- IC50 [2, 11]: 34.4 ± 2.3 µM
- selectivity ratio [3]: 7.2
- IC50 (T. cruzi epimastigotes [4]; [12]): 35.5 ± 2.5 µM
- IC50 (T. cruzi epimastigotes [4]; abstract, stage not stated, read-out: IC50 against T. cruzi (abstract)): 25.2 µM
- selectivity ratio [5]: 8.8
- IC50 (intramacrophage T. cruzi): 28.8 ± 5.6 µM
- CC50 [6]: 254.5 ± 1.9 µM
- decrease of ATP production compared to negative control (L. amazonensis): 67%
- decrease of ATP production compared to negative control (T. cruzi): 50%
- chromatin condensation (Hoechst/PI staining) [7]: increasing the chromatin condensation
- chromatin condensation (Hoechst/PI staining) (T. cruzi epimastigotes [8]): increasing the chromatin condensation
- autophagic vacuoles (MDC staining) [9]: Induction of autophagy
- autophagic vacuoles (MDC staining) (T. cruzi epimastigotes [10]): Induction of autophagy
